{"source": "paper PMC3615092", "about": "“Identification, Design and Bio-Evaluation of Novel Hsp90 Inhibitors by Ligand-Based Virtual Screening” (PLoS ONE, 2013)", "key": {"Hsp90 [1]": {"target": "T1, Hsp90 (Homo sapiens, UniProt P07900)", "T1 construct": "The region encoding full-length Hsp90 was subcloned into pET28a; inferred from the pET28a vector and Ni-NTA purification; made in house; host or cells: E. coli", "test": "Malachite green assay of Hsp90 ATPase activity", "type": "biochemical", "settings": "for IC50: by malachite green assay", "description": "The region encoding full-length Hsp90 was subcloned into pET28a. Protein expression in E. coli cells were induced with 0.5 mM IPTG. Cells were harvested after 20h of growth at 16°C and then disrupted by sonication. The soluble lysate was clarified by centrifugation and applied to a Ni^2+-nitrilo-triacetic acid (NTA) agarose column in a buffer (50 mM Tris-Cl, 300 mM NaCl, 10 mM Imidazole, 10% [v/v] Glycerol, 10 mM PMSF, 10 mM DTT). Hsp90 Protein was eluted with a linear gradient of 20–1000 mM imidazole. Hsp90 was identified by SDS-PAGE, and the high concentrated fraction was dialyzed against ATPase buffer (20 mM Tris-Cl, pH 7.5; 6 mM MgCl2; 20 mM KCl) and then aliquoted, frozen in liquid nitrogen, stored at −80°C.\nThe test compounds were diluted from mother plates (10 mM in 100% (v/v) DMSO) into daughter plates (200 μM in 2.0% (v/v) DMSO); 5 μL of test compound solution was added to each well (equivalent to a final concentration of 40 μM) of the 96-well assay plate. The first and last rows of the 96-well plate contained the appropriate concentration of DMSO were used as blank control. ATP was dissolved in the assay buffer to give a stock concentration of 2.5 mM and stored at room temperature. A 10 μL aliquot of ATP solution was added to each well to give a final assay concentration of 1 mM. Before the usage, Hsp90 protein was thawed on ice and suspended in chilled assay buffer to a stock concentration of 0.45 mg/mL, and the solution was kept on ice. The incubation was started by adding 10 μL of the stock Hsp90 to each well (except for the background wells which received 10 μL of assay buffer), giving a final assay volume of 25 μL. The plates were shaken for approximately 2 min and incubated for 3 h at 37°C.\nThe assay procedures were based on the literatures [33]–[35]. […] The reagent is initially dark brown, but on standing for ∼2 h at room temperature changes to a golden yellow and is ready for use. The assay buffer was 100 mM Tris–HCl, 20 mM KCl, 6 mM MgCl2, pH 7.4.\nTo stop the ATPase reactions, 80 μL of the malachite green reagent was added to each well."}, "Hsp90 [2]": {"target": "T1, Hsp90", "test": "ATP hydrolysis inhibition, ADP Hunter Plus (ADP fluorescence) assay", "type": "biochemical", "settings": "by ADP fluorescence assay", "description": "The first and last rows of the 96-well plate contained the appropriate concentration of DMSO were used as blank control. ATP was dissolved in the assay buffer to give a stock concentration of 2.5 mM and stored at room temperature. A 10 μL aliquot of ATP solution was added to each well to give a final assay concentration of 1 mM. Before the usage, Hsp90 protein was thawed on ice and suspended in chilled assay buffer to a stock concentration of 0.45 mg/mL, and the solution was kept on ice. […] The plates were shaken for approximately 2 min and incubated for 3 h at 37°C. The Discover RX ADP Hunter^TM Plus Assay kit (Discoverx, Fremont, CA) was used following the manufacturer's instructions. ATPase reactions were carried out after 3 h at 37°C temperature in presence of different concentrations of compounds. ADP generation was measured using Varioskan multimode microplate spectrophotometer (540 nm excitation and 620 nm emission). […] The background reaction rate was measured in a reaction lacking enzyme or substrate and subtracted from the experimental rates."}, "Hsp70": {"target": "T2, Hsp70 (Homo sapiens, UniProt P0DMV8)", "T2 construct": "purchased Enzo Life science ALX-201-214-C025", "T2 sequence (P0DMV8 whole entry)": "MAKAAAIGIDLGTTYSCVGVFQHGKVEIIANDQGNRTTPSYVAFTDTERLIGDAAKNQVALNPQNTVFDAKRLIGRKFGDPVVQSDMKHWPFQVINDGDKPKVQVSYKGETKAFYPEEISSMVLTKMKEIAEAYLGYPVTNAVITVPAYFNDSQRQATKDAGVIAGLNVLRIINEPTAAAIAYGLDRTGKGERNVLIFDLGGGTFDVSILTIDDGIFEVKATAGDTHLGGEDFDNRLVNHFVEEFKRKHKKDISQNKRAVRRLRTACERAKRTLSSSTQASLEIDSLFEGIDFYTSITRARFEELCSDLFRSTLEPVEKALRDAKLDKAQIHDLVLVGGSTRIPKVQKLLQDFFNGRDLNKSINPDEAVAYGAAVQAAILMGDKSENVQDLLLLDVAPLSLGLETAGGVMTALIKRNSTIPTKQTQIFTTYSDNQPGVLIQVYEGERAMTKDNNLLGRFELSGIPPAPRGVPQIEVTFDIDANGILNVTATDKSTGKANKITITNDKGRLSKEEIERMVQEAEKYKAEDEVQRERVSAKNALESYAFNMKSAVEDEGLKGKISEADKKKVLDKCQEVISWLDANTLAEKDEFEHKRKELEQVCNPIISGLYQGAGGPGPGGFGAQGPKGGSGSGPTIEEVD", "test": "Hsp70 ATPase activity assay (ADP Hunter Plus)", "type": "biochemical", "settings": "for IC50: ADP Hunter Plus assay; for selectivity HSP90 over HSP70: ratio of IC50 HSP70 / HSP90, ADP fluorescence assay", "from_the_text": "The following materials were used for the biological evaluation: The PET-28a HSP90 expression vector was constructed. The Ni^2+-nitrilo-triacetic acid (NTA) agarose was purchased from General Electric (USA). […] Isopropyl-1-thio-d-galactopyranoside (IPTG) was purchased from Sigma (St. Lousi. MO). Antibodies of β-Actin, Hsp70, Hsp90, c-Raf, Akt, Src, Phospho-Src, ERK and Her-2 were purchased from Cell Signaling Technology (Danvers, MA). Anti-p-Akt(S473) was purchased from Signalway Antibody (Baltimore, MD). HIF-1α antibody was purchased from R&D systems. The stock solution of Hsp90 was prepared in a 20 mM Tris-Cl buffer with a pH 7.4, and concentration was fixed at 5.0 μM. […] The screened out compounds were purchased from SPECS and dissolved in DMSO (Sigma, St. Louis, MO) to make a final concentration of 10^−2 mol/L and were stored at −20°C. […] The water used in the experiments was thrice-distilled and all other materials were of analytical reagent grade.\nHsp70 ATPase activity was measured using Discover RX ADP Hunter^TM Plus Assay kit assay as descripted in the manufacturer's instructions. Breifly, Hsp70 (3 μM) was incubated with 1 mM ATP in 100 mM Tris pH 7.4 at 37°C for 3 h in the presence or absence of various concentrations of test compounds. ADP generation was measured using Varioskan multimode microplate spectrophotometer (540 nm excitation and 620 nm emission). Fluorescence intensity values measured for Hsp70 without any testing compound was assumed as 100% of enzyme activity. The background reaction rate was measured in a reaction lacking enzyme or substrate and subtracted from the experimental rates."}, "A549": {"test_system": "A549", "test": "Anti-proliferation MTT assay", "type": "cell-based", "description": "(§1) Cell viabilities were measured by a colorimetric assay using 3-(4, 5-dimethylthiaz-ol-2-yl)-2,5-diphenyltetrazoliumbromide (MTT, Sigma, Ltd.) as described previously. Experiments were carried out in triplicate in a parallel manner for each concentration of target compounds and the results were presented as mean ± SE. Control cells were given only culture media. After incubation for 48 h, absorbance (A) was measured at 570 nm. Survival ratio (%) was calculated using the following equation: survival ratio (%) = (Atreatment/Acontrol) × 100%."}, "HCT116": {"test_system": "HCT116", "test": "Anti-proliferation MTT assay", "type": "cell-based", "description": "as §1"}, "HepG2": {"test_system": "HepG2", "test": "Anti-proliferation MTT assay", "type": "cell-based", "description": "as §1"}, "MCF-7": {"test_system": "MCF-7", "test": "Anti-proliferation MTT assay", "type": "cell-based", "description": "as §1"}, "MDA-MB-231": {"test_system": "MDA-MB-231", "test": "Anti-proliferation MTT assay", "type": "cell-based", "description": "as §1"}, "SK-BR-3": {"test_system": "SK-BR-3", "test": "Anti-proliferation MTT assay", "type": "cell-based", "description": "as §1"}}, "data": [{"compound": "CC(C)c1cc(C(=O)N2Cc3ccc(CN4CCN(C)CC4)cc3C2)c(O)cc1O", "note": "[AT13387]", "values": [{"measurement": "IC50", "setting": "Hsp90 [1]", "result": "370 ± 50", "unit": "nM"}, {"measurement": "IC50", "setting": "Hsp90 [2]", "result": "340 ± 80", "unit": "nM"}, {"measurement": "IC50", "setting": "Hsp70", "result": "16300 ± 1200", "unit": "nM"}, {"measurement": "selectivity HSP90 over HSP70", "setting": "Hsp70", "result": "over 47 times"}]}, {"compound": "CO[C@H]1/C=C\\C=C(/C)C(=O)NC2=CC(=O)C(NCCN(C)C)=C(C[C@@H](C)C[C@H](OC)[C@H](O)[C@@H](C)/C=C(\\C)[C@@H]1OC(N)=O)C2=O", "note": "[Compound 17-DMAG, 17-Dimethylamino-ethylamino-17-demethoxygeldanamycin]", "values": [{"measurement": "Inhibition rate (% in 40 μM)", "setting": "Hsp90 [1]; 40 μM, colorimetric assay for inorganic phosphate", "result": 90, "unit": "%"}, {"measurement": "IC50", "setting": "A549; 48 h", "result": 57, "unit": "nM"}, {"measurement": "IC50", "setting": "HCT116; 48 h", "result": 260, "unit": "nM"}, {"measurement": "IC50", "setting": "HepG2; 48 h", "result": 490, "unit": "nM"}, {"measurement": "IC50", "setting": "MCF-7; 48 h", "result": 37, "unit": "nM"}, {"measurement": "IC50", "setting": "MDA-MB-231; 48 h", "result": 48, "unit": "nM"}, {"measurement": "IC50", "setting": "SK-BR-3; 48 h", "result": 1210, "unit": "nM"}]}, {"compound": "CN(C)S(=O)(=O)N1CCN(CC(O)COc2ccc3cc(Br)ccc3c2)CC1", "note": "(stereo not shown) [Compound S1]", "values": [{"measurement": "inhibition at 40 µM", "setting": "Hsp90 [1]; 40 μM, colorimetric assay for inorganic phosphate, read-out: Inhibition rate (% in 40 μM)", "result": "> 50", "unit": "%"}, {"measurement": "IC50", "setting": "Hsp90 [1]", "result": "2440 ± 330", "unit": "nM"}, {"measurement": "IC50", "setting": "Hsp90 [2]", "result": 1610, "unit": "nM"}, {"measurement": "IC50", "setting": "Hsp70", "result": "28200 ± 2270", "unit": "nM"}, {"measurement": "selectivity HSP90 over HSP70", "setting": "Hsp70", "result": "over 15 times"}, {"measurement": "IC50", "setting": "A549; Homo sapiens, A549, 48 h", "result": 25900, "unit": "nM"}, {"measurement": "IC50", "setting": "HCT116; Homo sapiens, HCT-116, 48 h", "result": 4660, "unit": "nM"}, {"measurement": "IC50", "setting": "HepG2; Homo sapiens, HepG2, 48 h", "result": 2270, "unit": "nM"}, {"measurement": "IC50", "setting": "MCF-7; Homo sapiens, MCF7, 48 h", "result": 3790, "unit": "nM"}, {"measurement": "IC50", "setting": "MDA-MB-231; Homo sapiens, MDA-MB-231, 48 h", "result": 2270, "unit": "nM"}, {"measurement": "IC50", "setting": "SK-BR-3; Homo sapiens, SK-BR-3, 48 h", "result": 15800, "unit": "nM"}]}]}
